Experimental findings from ChEMBL document CHEMBL5108043, “Novel benzimidazole-based pseudo-irreversible butyrylcholinesterase inhibitors with neuroprotective activity in an Alzheimer's disease mouse model” (RSC Med Chem, 2022) are described below.

Molecules are shown by their SMILES. Values after ≈ are worked out from the molar mass of the structure shown. Active and inactive are the calls of the source. The rule behind the calls is not given here. Bounds are passed on as bounds.

Series [1] deals with T1, Cholinesterase (Homo sapiens, UniProt P06276).
Description: Inhibition of human BChE using butyrylthiocholineiodide as substrate preincubated for 20 mins followed by substrate addition and measured every 30 sec for 3 mins by DTNB-based UV analysis
For series [2], the target named is T2, Acetylcholinesterase (Homo sapiens, UniProt P22303).
Description: Inhibition of human AChE using acetylthiocholine iodide as substrate preincubated for 20 mins followed by substrate addition and measured every 30 sec for 3 mins by DTNB-based UV analysis
The conditions of series [3]: buffer.
Description: (§1) Solubility of the compound in PBS buffer incubated overnight at room temperature by HPLC based continuous shake-flask method
Series [4] deals with T1, Cholinesterase. The series is described as follows: Pseudo-irreversible inhibition of human BChE using butyrylthiocholineiodide as substrate assessed as equilibrium constant Kc preincubated for 20 mins followed by substrate addition and measured every 30 sec for 3 mins by DTNB-based UV analysis. The conditions noted are these: time 23.0 min.
The target of series [5] is T1, Cholinesterase. The series is described as follows: Pseudo-irreversible inhibition of human BChE using butyrylthiocholineiodide as substrate assessed as rate constant k3 preincubated for 20 mins followed by substrate addition and measured every 30 sec for 3 mins by DTNB-based UV analysis. The conditions noted are these: time 23.0 min.
The target in series [6] is T1, Cholinesterase. The series is described as follows: Pseudo-irreversible inhibition of human BChE assessed as decarbamylation of enzyme by measuring rate constant k4 incubated for 1 hrs.
In series [7] the target is T3, Cannabinoid receptor 2 (Homo sapiens, UniProt P34972). The experiment in a line: Displacement of [3H]CP55940 from human CB2 receptor expressed in HEK cells incubated for 3 hrs by competitive assay. Format: cell-based. For orientation: In a radioligand displacement assay an active substance lowers the binding of a labelled ligand.
Series [8] can be described thus: Neurotoxicity against mouse HT-22 cells assessed as cell viability at 0.75 to 25 uM by MTT assay. In kind it is toxicity, cell-based. As to conditions: ht-22, 25 µM, dose 0.75-25 µM.
Series [9] deals with Mus musculus. The series is described as follows: Anti-alzheimer activity against amyloid beta 25-35 induced learning impairments in Swiss mouse assessed as attenuation of spatial working memory at 0.03 mg/kg, ip administered for 7 days and measured on day 8 by Y-maze test. Format: functional, organism-based. The conditions noted are these: time 8.0 day.
Series [10] has as its system Mus musculus. The experiment in a line: Anti-alzheimer activity against amyloid beta 25-35 induced learning impairments in Swiss mouse assessed as attenuation of long-term memory at 0.03 mg/kg, ip administered for 7 days and measured on day 10 by passive avoidance test. In kind it is functional, organism-based. The conditions noted are these: time 10.0 day.
The target of series [11] is T1, Cholinesterase. The conditions noted are these: time 1.0 hrs.
A further series in a line: physchem. The conditions noted are these: PBS buffer.
Series [12] is described as follows: Neurotoxicity against mouse HT-22 cells assessed as cell viability at 1 to 25 uM by MTT assay. In kind it is toxicity, cell-based. The conditions noted are these: ht-22, 25 µM, dose 1-25 µM. A general note: Tetrazolium assays rely on reduction of a dye to a coloured formazan, in cell work by metabolically active cells.
For series [13], the target named is T2, Acetylcholinesterase. The series is described as follows: Inhibition of human AChE using acetylthiocholine iodide as substrate at 10 uM preincubated for 20 mins followed by substrate addition and measured every 30 sec for 3 mins by DTNB-based UV analysis relative to control. The conditions noted are these: time 23.0 min.
The target of series [14] is T3, Cannabinoid receptor 2. The series is described as follows: Binding affinity to human CB2 receptor expressed in HEK cells at 10 uM relative to control. Format: cell-based.

T2 sequence (P22303 whole entry): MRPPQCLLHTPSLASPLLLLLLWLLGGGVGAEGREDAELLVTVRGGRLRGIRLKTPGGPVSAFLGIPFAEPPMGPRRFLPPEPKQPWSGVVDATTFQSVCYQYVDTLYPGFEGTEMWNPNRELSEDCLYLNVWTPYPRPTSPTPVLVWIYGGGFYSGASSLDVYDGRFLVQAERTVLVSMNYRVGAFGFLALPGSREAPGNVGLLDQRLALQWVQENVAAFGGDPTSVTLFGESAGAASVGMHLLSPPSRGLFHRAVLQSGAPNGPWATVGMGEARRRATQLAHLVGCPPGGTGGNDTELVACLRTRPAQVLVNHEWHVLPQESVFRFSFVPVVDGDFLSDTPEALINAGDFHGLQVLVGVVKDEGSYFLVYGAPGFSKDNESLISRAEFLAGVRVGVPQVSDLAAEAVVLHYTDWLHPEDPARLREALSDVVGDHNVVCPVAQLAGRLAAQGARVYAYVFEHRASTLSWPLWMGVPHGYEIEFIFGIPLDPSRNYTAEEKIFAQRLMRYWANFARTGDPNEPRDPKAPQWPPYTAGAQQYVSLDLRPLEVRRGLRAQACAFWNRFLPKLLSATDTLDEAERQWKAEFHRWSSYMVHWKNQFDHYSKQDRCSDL
T1 sequence (P06276 whole entry): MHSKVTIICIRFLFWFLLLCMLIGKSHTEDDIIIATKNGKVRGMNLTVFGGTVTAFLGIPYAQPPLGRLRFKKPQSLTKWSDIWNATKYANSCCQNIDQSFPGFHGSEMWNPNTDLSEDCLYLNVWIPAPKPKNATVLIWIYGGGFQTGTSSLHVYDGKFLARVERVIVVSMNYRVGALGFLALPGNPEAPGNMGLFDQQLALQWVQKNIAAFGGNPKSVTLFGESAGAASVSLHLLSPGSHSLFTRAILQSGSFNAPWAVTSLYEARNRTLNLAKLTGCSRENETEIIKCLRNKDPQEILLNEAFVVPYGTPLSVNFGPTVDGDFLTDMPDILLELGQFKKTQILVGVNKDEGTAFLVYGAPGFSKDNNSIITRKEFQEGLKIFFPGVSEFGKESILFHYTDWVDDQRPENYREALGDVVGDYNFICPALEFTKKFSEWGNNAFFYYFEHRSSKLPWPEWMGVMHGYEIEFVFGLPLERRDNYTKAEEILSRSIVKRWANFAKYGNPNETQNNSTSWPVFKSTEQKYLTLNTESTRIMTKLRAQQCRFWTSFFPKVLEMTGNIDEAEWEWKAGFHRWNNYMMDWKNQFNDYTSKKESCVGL
T3 sequence (P34972 whole entry): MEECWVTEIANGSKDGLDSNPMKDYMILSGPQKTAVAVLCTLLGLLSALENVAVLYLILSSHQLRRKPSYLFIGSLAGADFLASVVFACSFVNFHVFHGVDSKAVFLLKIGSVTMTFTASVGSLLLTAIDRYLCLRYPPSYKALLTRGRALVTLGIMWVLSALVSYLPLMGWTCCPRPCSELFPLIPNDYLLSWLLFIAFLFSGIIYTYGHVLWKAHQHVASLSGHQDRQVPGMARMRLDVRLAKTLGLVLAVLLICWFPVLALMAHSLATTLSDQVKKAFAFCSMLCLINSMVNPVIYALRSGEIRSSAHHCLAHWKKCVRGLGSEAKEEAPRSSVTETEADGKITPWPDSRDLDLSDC
Description for physchem: as §1

In the case of `CCN(CC)C(=O)c1ccc2c(c1)nc(Cc1ccc(OC(=O)NCCCCCCN3CCc4ccccc4C3)cc1)n2CCC(C)C`, the IC50 against Cholinesterase [1] is 76.5 nM; against Acetylcholinesterase [2], 9520 nM. Besides, the solubility entry in series [3] is given as “Insoluble”.

`CCN(CC)C(=O)c1ccc2c(c1)nc(Cc1ccc(OC(=O)N3CCC3)cc1)n2CCC(C)C`: the K at Cholinesterase [4] was 3 µM; on Cholinesterase [5], 8.9 min⁻¹; at Cholinesterase [6], 0.74 h⁻¹. For the same compound, the IC50 is 5010 nM on Cannabinoid receptor 2 [7] and 631 nM on Acetylcholinesterase [2]. The Activity entry in series [8] is reported as “Non-Toxic”. The result in the series with Mus musculus [9] and in the series with Mus musculus [10] was Active. Also, the T1/2 on Cholinesterase [11] stood at 56.3 min. In the series “physchem”, this compound returned a thermodynamic solubility of 7.2 µg/mL (≈ 15.1 µM).

For the compound `CCN(CC)C(=O)c1ccc2c(c1)nc(Cc1ccc(O)cc1)n2CCC(C)C`, in series [12], the Activity result is “Non-Toxic”.

On Acetylcholinesterase [13], `CCN(CC)C(=O)c1ccc2c(c1)nc(Cc1ccc(OC(=O)N3CCCC3)cc1)n2CCC(C)C` returned an inhibition of 16%. This compound also yielded an Activity on Cannabinoid receptor 2 [14] below 10%. The compound also returned an IC50 on Cholinesterase [1] of 139 nM. The same compound had a solubility (thermodynamic) in “physchem” of 3.9 µg/mL (≈ 7.95 µM).

With `CCCCCCCNC(=O)Oc1ccc2c(c1)CN1CCc3ccccc3C1N2C` (stereo unspecified), the inhibition on Acetylcholinesterase [13] was 39%. This compound also yielded a solubility (thermodynamic) in the series “physchem” below 1 µg/mL.

With `CCCCCCCNC(=O)Oc1ccc(Cc2nc3cc(C(=O)N4CCCCC4)ccc3n2CCC(C)C)cc1`, the IC50 on Cholinesterase [1] stood at 30.6 nM; on Acetylcholinesterase [2], 58 nM. The solubility (thermodynamic) in “physchem” was below 1 µg/mL.

As for `CCCCCCCNC(=O)Oc1ccc(Cc2nc3cc(C(=O)N(CC)CC)ccc3n2CCC(C)C)cc1`, the Activity on Cannabinoid receptor 2 [14] was determined as 33%. Further, the IC50 was 13.2 nM against Cholinesterase [1] and 175 nM against Acetylcholinesterase [2]. Also, in “physchem”, the solubility (thermodynamic) is below 1 µg/mL.

For `CCCCCCCNC(=O)Oc1ccc(Cc2nc3cc(C(=O)N(CC)CC)ccc3n2CCCCN2CCCCC2)cc1`, the concentration for half-maximal inhibition (IC50) amounted to 2410 nM on Cholinesterase [1] and 2150 nM against Acetylcholinesterase [2]. In addition, the thermodynamic solubility in “physchem” stood at 67 µg/mL (≈ 111 µM).

In turn, `CCCCCCCNC(=O)Oc1ccc(Cc2nc3cc(C(=O)NCCC(C)C)ccc3n2CCC(C)C)cc1` gave an inhibition against Acetylcholinesterase [13] of 55%. The IC50 on Cholinesterase [1] was determined as 3.7 nM. In “physchem”, this compound showed a solubility (thermodynamic) below 1 µg/mL.

`CCCCCCCNC(=O)Oc1ccc(Cc2nc3cc(C(=O)Nc4ccccc4)ccc3n2CCC(C)C)cc1` came in with an inhibition against Acetylcholinesterase [13] of 49%. Besides, the IC50 on Cholinesterase [1] stood at 15.5 nM. Further, in series [3], the solubility result was “Insoluble”.

A word on the IC50: it is the midpoint of a concentration-inhibition curve. A low value points to higher potency. As a reminder, the solubility (thermodynamic) is solubility found after equilibrating the solid with the medium. Broadly, the inhibition is the relative decrease from the control value, in per cent. Low values mean a weak effect, high ones a strong effect.
